The target in the test is purified human Factor XIa (Homo sapiens (Human), UniProt P03951). Put plainly: Factor XIa Assay. The class given is biochemical. As for the experimental part:
The effectiveness a of compound of the present invention as an inhibitor of Coagulation Factor XIa can be determined using a relevant purified serine protease, and an appropriate synthetic substrate. The rate of hydrolysis of the chromogenic or fluorogenic substrate by the relevant serine protease was measured both in the absence and presence of compounds of the present invention. Assays were conducted at room temperature or at 37° C. […] A decrease in the rate of fluorescence change in the presence of inhibitor is indicative of enzyme inhibition. Such methods are known to one skilled in the art. The results of this assay are expressed as the inhibitory constant, Ki.
Factor XIa determinations were made in 50 mM HEPES buffer at pH 7.4 containing 150 mM NaCl, 5 mM CaCl2, and 0.1% PEG 8000 (polyethylene glycol; J T Baker or Fisher Scientific). Determinations were made using purified human Factor XIa at a final concentration of 40 pM (Sekisui Diagnostics) and the synthetic substrate, Z-Gly-Pro-Arg-AFC, TFA salt (Sigma #C0980) at a concentration of 100 μM.
Activity assays were performed by diluting a stock solution of substrate at least tenfold to a final concentration ≤0.1 Km into a solution containing enzyme or enzyme equilibrated with inhibitor. Times required to achieve equilibration between enzyme and inhibitor were determined in control experiments. Initial velocities of product formation in the absence (Vo) or presence of inhibitor (Vi) were measured. Assuming competitive inhibition, and that unity is negligible compared Km/[S], [I]/e, and [I]/e (where [S], [I], and e respectively represent the total concentrations, of substrate, inhibitor and enzyme), the equilibrium constant (Ki) for dissociation of the inhibitor from the enzyme can be obtained from the dependence of Vo/Vi on [I] shown in the following equation. Vo/Vi=1+[I]/Ki

Among the data in US9944643B2, “Factor XIa inhibitors” (MERCK SHARP & DOHME CORP., priority 2014, dated 2018) are Ki values, retold here.

pKi: −log10 of the molar value.

Chain of purified human Factor XIa (P03951 whole entry, looked up): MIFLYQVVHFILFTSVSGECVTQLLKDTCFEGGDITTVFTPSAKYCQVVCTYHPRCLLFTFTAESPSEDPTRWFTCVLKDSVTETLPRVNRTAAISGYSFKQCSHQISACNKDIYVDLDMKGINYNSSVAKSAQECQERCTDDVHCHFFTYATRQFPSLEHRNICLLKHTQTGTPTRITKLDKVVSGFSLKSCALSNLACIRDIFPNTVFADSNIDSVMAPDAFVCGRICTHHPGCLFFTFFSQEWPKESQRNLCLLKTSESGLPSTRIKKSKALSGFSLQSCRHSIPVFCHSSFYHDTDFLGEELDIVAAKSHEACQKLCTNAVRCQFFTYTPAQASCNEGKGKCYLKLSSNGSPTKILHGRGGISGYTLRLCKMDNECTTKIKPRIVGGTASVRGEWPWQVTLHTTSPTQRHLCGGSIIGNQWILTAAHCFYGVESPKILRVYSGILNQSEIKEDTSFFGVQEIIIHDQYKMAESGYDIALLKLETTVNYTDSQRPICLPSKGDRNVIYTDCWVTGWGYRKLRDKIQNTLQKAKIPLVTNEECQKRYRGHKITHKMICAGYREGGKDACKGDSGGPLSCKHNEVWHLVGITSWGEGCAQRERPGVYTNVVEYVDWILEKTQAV
Chain of purified human Factor XIa (P03951 whole entry partner, looked up): as the sequence (P03951 whole entry, looked up) above

For `COC(=O)Nc1ccc2c(c1)NC(=O)CCCC[C@H](NC(=O)c1ccc(CN)c(C3CC3)c1)c1nc-2c[nH]1` [Example 1, Methyl [(7S)-7-({[4-(aminomethyl)-3-cyclopropylphenyl]carbonyl}amino)-2-oxo-1,2,3,4,5,6,7,9-octahydro-11,8-(azeno)-1,9-benzodiazacyclotridecin-14-yl]carbamate], the pKi (in general, the negative decadic logarithm of the Ki, by convention in mol/L) was 10.00. For `COC(=O)Nc1ccc2c(c1)NC(=O)CCCC[C@H](NC(=O)c1cnc(CN)c(C3CC3)c1)c1nc-2c[nH]1` [Example 2], the pKi was 8.96. With `COC(=O)Nc1ccc2c(c1)N[C@@H](C(=O)O)CCCC[C@H](NC(=O)c1ccc(CN)c(C3CC3)c1)c1nc-2c[nH]1` [Example 3], the pKi was 10.00.

Consider `COC(=O)Nc1ccc2c(c1)NC(=O)[C@@H](C)CCC[C@H](NC(=O)c1ccc(CN)c(C3CC3)c1)c1cc-2ccn1` [Example 4], for which the pKi was 10.52. In turn, `COC(=O)Nc1ccc2c(c1)NC(=O)CCCC[C@H](NC(=O)c1ccc(CN)c(C3CC3)c1)c1nc-2c(Cl)[nH]1` [Example 5] gave a pKi of 10.30. `CC(C)COC(=O)Nc1ccc2c(c1)NC(=O)[C@@H](C)CCC[C@H](NC(=O)c1ccc(CN)c(C3CC3)c1)c1cc-2ccn1` [Example 6]: the pKi was 9.70. This pKi lies 0.60 log units lower than the previous one. In turn, `C[C@H]1CCC[C@H](NC(=O)c2ccc(CN)c(C3CC3)c2)c2cc(ccn2)-c2ccc(NC(=O)OC3CCCC3)cc2NC1=O` [Example 7] gave a pKi of 9.52. Consider `COCCOC(=O)Nc1ccc2c(c1)NC(=O)[C@@H](C)CCC[C@H](NC(=O)c1ccc(CN)c(C3CC3)c1)c1cc-2ccn1` [Example 8], for which the pKi was 10.00.
